ChEMBL document CHEMBL1139066, “Analogues of 2-crotonyloxymethyl-(4R,5R,6R)-4,5,6-trihydroxycyclohex-2-enone (COTC) with anti-tumor properties” (Bioorg Med Chem Lett, 2007)
pIC50: −log10 of the molar value.

What was measured:
NCI-H460 = assay: Cytotoxicity against human H460 cells by MTT assay; format: functional, cell-based
A549 = assay: Cytotoxicity against human A549 cells by MTT assay; format: functional, cell-based

Row | Compound | pIC50 (NCI-H460) | pIC50 (A549)
1 | C/C=C/C(=O)OCC1=C[C@@H](O)[C@H](O)CC1=O | 3.80 | 3.83
2 | C/C=C/C(=O)OCC1=C[C@H]2O[C@](C)(OC)[C@@](C)(OC)O[C@@H]2CC1=O | 4.22 | 4.49
3 | C/C=C/C(=O)OCC1=C[C@H]2O[C@](C)(OC)[C@@](C)(OC)O[C@@H]2[C@H](F)C1=O | 4.37 | 4.51
4 | C/C=C/C(=O)OCC1=CC(O)CCC1=O (configuration not stated) | 5.00 | 4.62
5 | C/C=C/C(=O)OCC1=C[C@@H](O)[C@H](O)[C@H](F)C1=O | < 3.70 | 3.79
6 | C/C=C/C(=O)OCC1=CCCCC1=O | 4.40 | 4.26
